Data set [1] in a line: in vitro. The settings on record: human.
Data set [2] deals with SARS-CoV-2 (WA-1). Description: Antiviral immunofluorescence assay, SARS-CoV-2 WA1 in Vero-TMPRSS2 cells. Type of data set: cell-based. As to conditions: for EC50: Severe acute respiratory syndrome coronavirus 2, Vero/TMPRSS2; for EC90: Severe acute respiratory syndrome coronavirus 2, WA-1, Vero-TMPRSS2 cells, immunofluorescence, 38 hpi.
Data set [3] can be described thus: in vitro. The settings on record: human. This is another data set of the same source.
The nature of data set [4]: in vitro. As to conditions: human. This is another data set of the same source.
Data set [5] relates to SARS-CoV-2 WA1 (USA-WA1/2020). The data set can be described thus: Antiviral immunofluorescence assay, SARS-CoV-2 WA1 in Calu-3 cells. It counts as cell-based. As to conditions: immunofluorescence, 44 hpi, mean ± SD; for EC50: Severe acute respiratory syndrome coronavirus 2, Calu-3, WA1, Calu-3 cells, read-out: EC50; for EC90: Severe acute respiratory syndrome coronavirus 2, WA1, Calu-3 cells.

In data set [6] the test system is SARS-CoV-2 (WA-1). The data set can be described thus: Antiviral immunofluorescence assay, SARS-CoV-2 WA1 in human pluripotent stem cell-derived lung cells. It counts as cell-based. As to conditions: Severe acute respiratory syndrome coronavirus 2, WA-1, PSC-lung cells (ALDA 31616 and H9), 24 hpi.
Data set [7] deals with SARS-CoV-2 (WA-1). The data set can be described thus: Antiviral immunofluorescence assay, SARS-CoV-2 WA1 in Huh7.5 cells. It counts as cell-based.
A short description of data set [8]: in vitro. The settings on record: chlorocebus aethiops.
Protocol: Cells were seeded as per SARS-CoV-2 infection studies in opaque walled 96-well cell culture plates and incubated overnight for Huh7.5 and Vero-TMPRSS2 cells and for an additional 24h for Calu-3 cells. Compounds or controls were added at the indicated concentrations. Cells were incubated for 48h for Huh7.5 cells, 40–44h for Calu-3 cells, or 30–32h for Vero-TMPRSS2 cells at 37 °C and 5% CO2, an equal volume of CellTiter-Glo reagent (Cat. #G7570, Promega) or CellTiter-Glo 2.0 reagent (Cat. #G9241, Promega) was added and mixed, and luminescence was recorded on a Veritas Microplate Luminometer (Turner BioSystems) according to manufacturer recommendations. Percent viability was calculated compared to DMSO controls, and CC50 values were calculated using Prism 9.
Calu-3 cells were treated for 44h (A), Huh7.5 cells were treated for 48h (B), and Vero-
TMPRSS2 cells were treated for 38h (C) as in infection assays for each cell type. Cell viability
was measured by CellTiter-Glo assay and reported as % cell viability relative to DMSO controls.
Best fit curves calculated in Graphpad Prism 9 were used
to compute cytotoxic concentration 50% (CC50) values in Tables 1-3.
[9] abbreviates: Severe acute respiratory syndrome coronavirus 2, WA-1, Huh7.5 cells, immunofluorescence, 48 hpi, read-out: EC50.
The mark [10] stands for this setting: Severe acute respiratory syndrome coronavirus 2, WA-1, Huh7.5 cells, immunofluorescence, 48 hpi, read-out: EC90.
The mark [11] stands for this setting: Severe acute respiratory syndrome coronavirus 2, Huh7.5.

From paper PMC10108740 (Journal of Medicinal Chemistry, 2023) come the findings set out here.

`CCCCCCCCCCCCCCCCCCOC[C@H](COP(=O)(O)OC[C@H]1O[C@@](C#N)(c2ccc3c(N)ncnn23)[C@H](O)[C@@H]1O)OCc1ccc(OC)c(F)c1` [Compound 9g, ((2R,3S,4R,5R)-5-(4-Aminopyrrolo[2,1-f][1,2,4]triazin-7-yl)-5-cyano-3,4-dihydroxytetrahydrofuran-2-yl)methyl ((R)-2-((3-fluoro-4-methoxybenzyl)oxy)-3-(octadecyloxy)propyl) hydrogen phosphate] came in with a CC50 at 44 h in “in vitro [1]” of 50500 nM. Moreover, the half-maximal effective concentration (EC50) in the data set on SARS-CoV-2 (WA-1) [2] was determined as 178 ± 57 nM; in data set [5] it was 77 ± 27 nM; with SARS-CoV-2 (WA-1) [6], 167 ± 55 nM; in the data set on SARS-CoV-2 (WA-1) [7] (setting [9]), 60 ± 37 nM. For the same compound, the 90% effect concentration (EC90) with SARS-CoV-2 (WA-1) [2] was found to be 294 ± 62 nM; in data set [5], 145 ± 54 nM; with SARS-CoV-2 (WA-1) [6], 348 ± 121 nM; in the data set on SARS-CoV-2 (WA-1) [7] (setting [10]), 212 ± 86 nM. Further, the CC50 at 24 h in “in vitro [3]” was > 20000 nM. In the data set “in vitro [4]”, this compound registered a CC50 at 48 h of 70100 nM. Besides, in “in vitro [8]”, the CC50 is > 100000 nM.
Compound `CCCCCCCCCCCCCCCCOC[C@H](COP(=O)(O)OC[C@H]1O[C@@](C#N)(c2ccc3c(N)ncnn23)[C@H](O)[C@@H]1O)OCc1ccccc1` [Compound 11a, ((2R,3S,4R,5R)-5-(4-Aminopyrrolo[2,1-f][1,2,4]triazin-7-yl)-5-cyano-3,4-dihydroxytetrahydrofuran-2-yl)methyl ((R)-2-(benzyloxy)-3-(hexadecyloxy)propyl) hydrogen phosphate] had a CC50 at 44 h in “in vitro [1]” of 88700 nM. Also, the concentration giving a half-maximal response (EC50) was determined as 402 ± 84 nM with SARS-CoV-2 (WA-1) [2], 95 ± 12 nM in data set [5] and 131 ± 66 nM in the data set with SARS-CoV-2 (WA-1) [7] (setting [9]). Also, the concentration for an effect of 90% (EC90) with SARS-CoV-2 (WA-1) [2] stood at 798 ± 154 nM; in data set [5], 716 ± 270 nM; with SARS-CoV-2 (WA-1) [7] (setting [10]), 268 ± 221 nM. Besides, the CC50 at 48 h in “in vitro [4]” is > 100000 nM. For the same compound, the CC50 in the data set “in vitro [8]” is > 100000 nM.
For the compound `CCCCCCCCCCCCCCCCOC[C@H](COP(=O)(O)OC[C@H]1O[C@@](C#N)(c2ccc3c(N)ncnn23)[C@H](O)[C@@H]1O)OCc1ccc(OC)c(F)c1` [Compound 11g, ((2R,3S,4R,5R)-5-(4-Aminopyrrolo[2,1-f][1,2,4]triazin-7-yl)-5-cyano-3,4-dihydroxytetrahydrofuran-2-yl)methyl ((R)-2-((3-fluoro-4-methoxybenzyl)oxy)-3-(hexadecyloxy)propyl) hydrogen phosphate], in the data set “in vitro [1]”, the CC50 at 44 h was 75700 nM. Further, the EC50 with SARS-CoV-2 (WA-1) [2] was 406 ± 87 nM; in data set [5], 51 ± 18 nM; with SARS-CoV-2 (WA-1) [6], 130 ± 56 nM; in the data set with SARS-CoV-2 (WA-1) [7] (setting [9]), 50 ± 22 nM. In addition, the EC90 turned out to be 858 ± 249 nM in the data set with SARS-CoV-2 (WA-1) [2], 240 ± 131 nM in data set [5], 267 ± 19 nM with SARS-CoV-2 (WA-1) [6] and 103 ± 47 nM with SARS-CoV-2 (WA-1) [7] (setting [10]). The CC50 at 24 h in “in vitro [3]” was > 20000 nM. Moreover, the CC50 at 48 h in the data set “in vitro [4]” is 59000 nM. In “in vitro [8]”, the CC50 was > 100000 nM.
Turning to `CCCCCCCCCCCCCCOC[C@H](COP(=O)(O)OC[C@H]1O[C@@](C#N)(c2ccc3c(N)ncnn23)[C@H](O)[C@@H]1O)OCc1ccccc1` [Compound 12a, ((2R,3S,4R,5R)-5-(4-Aminopyrrolo[2,1-f][1,2,4]triazin-7-yl)-5-cyano-3,4-dihydroxytetrahydrofuran-2-yl)methyl ((R)-2-(benzyloxy)-3-(tetradecyloxy)propyl) hydrogen phosphate], the CC50 at 44 h in the data set “in vitro [1]” was > 100000 nM. The figures for the half-maximal effective concentration (EC50) (in the data set with SARS-CoV-2 (WA-1) [2]; in data set [5]; in the data set with SARS-CoV-2 (WA-1) [7] (setting [11])) were 909 ± 27 nM, 213 ± 97 nM and 157 ± 400 nM, respectively. The concentration for an effect of 90% (EC90) was 1630 ± 120 nM in the data set on SARS-CoV-2 (WA-1) [2], 575 ± 251 nM in data set [5] and 479 ± 19 nM in the data set with SARS-CoV-2 (WA-1) [7] (setting [11]). Also, the CC50 at 48 h in “in vitro [4]” was > 100000 nM. Further, in the data set “in vitro [8]”, the CC50 was > 100000 nM.

The EC50 is the concentration that produces a half-maximal response. What is called EC90 is the concentration at which the effect reaches the 90% level.
